Measured values reported in ChEMBL document CHEMBL1201862, “PubChem BioAssay data set” (2004).
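Results reflect a 48-hour exposure of cells in 96-well plates to compound at five concentrations. GI50 is the concentration that inhibits growth by half.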 Activity calls are given as the source filed them. Cut-off read from the data, not from the text of the source: active = GI50 up to about 1.1 µM and inactive = higher. Where a SMILES comes first, the peptide text is derived from it. [ ]: non-standard residue; d: D form. The star is where a group is joined. Bn2Val = CC(C)[C@@H](C(=O)*)N(Cc1ccccc1)Cc1ccccc1; NH(3,4-diMeO-benzyl) = COc1ccc(CN*)cc1OC; NMeV = CN[C@H](C(=O)O)C(C)C

Legend:
Assay in all cases: inhibition of tumour cell growth, NCI panel, 48 h
HT-29 = test system: HT-29
OVCAR-4 = test system: OVCAR-4
HOP-62 = test system: HOP-62
OVCAR-8 = test system: OVCAR-8
MDA-N = test system: MDA-N
NCI-H23 = test system: NCI-H23
HCC 2998 = test system: HCC 2998
HCT-15 = test system: HCT-15
MCF7 = test system: MCF7
SK-OV-3 = test system: SK-OV-3
K562 = test system: K562
EKVX = test system: EKVX
HL-60 = test system: HL-60
DU-145 = test system: DU-145
SF-295 = test system: SF-295
SK-MEL-2 = test system: SK-MEL-2
RPMI-8226 = test system: RPMI-8226
NCI-H460 = test system: NCI-H460
HOP-92 = test system: HOP-92
SR = test system: SR

Structure (SMILES) | GI50 (HT-29) | GI50 (OVCAR-4) | GI50 (HOP-62) | GI50 (OVCAR-8) | GI50 (MDA-N) | GI50 (NCI-H23) | GI50 (HCC 2998) | GI50 (HCT-15) | GI50 (MCF7) | GI50 (SK-OV-3) | GI50 (K562) | GI50 (EKVX) | GI50 (HL-60) | GI50 (DU-145) | GI50 (SF-295) | GI50 (SK-MEL-2) | GI50 (RPMI-8226) | GI50 (NCI-H460) | GI50 (HOP-92) | GI50 (SR)
O=C1/C(=C/c2ccc(O)c([N+](=O)[O-])c2)CCC/C1=C\c1ccc(O)c([N+](=O)[O-])c1 | 12.3 µM (inactive) | 18.9 µM (inactive) | 12.5 µM (inactive) | 18.5 µM (inactive) | 7.57 µM (inactive) | 12.3 µM (inactive) | 8.69 µM (inactive) | 12.4 µM | 12.3 µM (inactive) | 26 µM (inactive) | 15.7 µM (inactive) | 22.6 µM (inactive) | 14.6 µM (inactive) | 9.77 µM (inactive) | 18.4 µM (inactive) | 11.4 µM (inactive) | 13.1 µM (inactive) | 17.8 µM (inactive) |  | 
Cc1ccc(Cc2cc(N3CCN(c4cccc(Cl)c4)CC3)nnc2C)cc1 | 31.6 µM (inactive) | > 100 µM (inactive) | > 100 µM (inactive) | 54.8 µM (inactive) | 16.4 µM (inactive) | 37.7 µM (inactive) |  | 63.8 µM | 76.2 µM (inactive) | > 100 µM (inactive) |  | 34.4 µM (inactive) |  | > 100 µM (inactive) | 42.9 µM (inactive) | 96.2 µM (inactive) | 17.8 µM (inactive) | 20.7 µM (inactive) |  | 
C=C(CO)[C@H]1CC/C(C)=C/CC/C(C)=C/C/C=C(\C)[C@H](O)C1 | 18.5 µM (inactive) | 46.7 µM (inactive) | > 100 µM (inactive) | 17.8 µM (inactive) | 34.5 µM (inactive) | 29.2 µM (inactive) | 15.2 µM (inactive) | 50 µM | 26 µM (inactive) | > 100 µM (inactive) | 37.8 µM (inactive) | 33.2 µM (inactive) |  | 49.3 µM (inactive) | 34.8 µM (inactive) | 22.8 µM (inactive) | 20 µM (inactive) | 22.1 µM (inactive) | 19.8 µM (inactive) | 
O=c1[nH]nc(-c2ccccc2)n1/N=C/c1cccc([N+](=O)[O-])c1 | > 100 µM (inactive) | > 100 µM (inactive) | 28.7 µM (inactive) | 93.5 µM (inactive) |  | > 100 µM (inactive) | > 100 µM (inactive) | > 100 µM | > 100 µM (inactive) | 14.9 µM (inactive) | > 100 µM (inactive) | > 100 µM (inactive) | > 100 µM (inactive) | > 100 µM (inactive) | 59.7 µM (inactive) | > 100 µM (inactive) | > 100 µM (inactive) | 91.6 µM (inactive) | > 100 µM (inactive) | 77.8 µM (inactive)
Cc1ccc(C2(c3ccc(C)cc3)SC(=C(C#N)C#N)c3ccccc32)cc1 | 55.6 µM (inactive) |  | 31.4 µM (inactive) | > 100 µM (inactive) |  | > 100 µM (inactive) | 89.7 µM (inactive) | 22.5 µM | 81.1 µM (inactive) | > 100 µM (inactive) | 7.67 µM (inactive) | > 100 µM (inactive) | 26.3 µM (inactive) | > 100 µM (inactive) | 97.9 µM (inactive) | 2.9 µM (inactive) |  | > 100 µM (inactive) | > 100 µM (inactive) | 27.6 µM (inactive)
c1ccc2c(NCCCCCCCCNc3c4ccccc4nc4ccccc34)c3ccccc3nc2c1 | < 0.0281 µM (active) | 0.887 µM (active) | 0.224 µM (active) | 0.27 µM (active) |  | 0.257 µM (active) | 0.0723 µM (active) | 0.528 µM | 0.0578 µM (active) | 0.553 µM (active) | 0.0469 µM (active) | 0.323 µM (active) | 0.125 µM (active) | 0.0838 µM (active) | 0.693 µM (active) | 0.733 µM (active) | 0.0828 µM (active) | 0.0428 µM (active) | 1.48 µM (inactive) | 0.024 µM (active)
O=C(O)CCC(NC(=O)c1ccc(OCc2nc3cc(C(F)(F)F)ccc3nc2-c2ccccc2)cc1)C(=O)O (stereo unspecified) | > 100 µM (inactive) | > 100 µM (inactive) | > 100 µM (inactive) | > 100 µM (inactive) |  | > 100 µM (inactive) | > 100 µM (inactive) | > 100 µM | > 100 µM (inactive) | > 100 µM (inactive) | > 100 µM (inactive) | > 100 µM (inactive) | > 100 µM (inactive) | > 100 µM (inactive) | > 100 µM (inactive) | > 100 µM (inactive) |  | > 100 µM (inactive) | > 100 µM (inactive) | 9.31 µM (inactive)
CC(=O)OCC1OC(N2C(=O)/C(=N\NC(N)=S)c3ccc([N+](=O)[O-])cc32)C(OC(C)=O)C1OC(C)=O (stereo unspecified) | 30 µM (inactive) | 19 µM (inactive) | 31.3 µM (inactive) | 19.4 µM (inactive) |  | 16.4 µM (inactive) | 26.4 µM (inactive) | 76 µM |  | > 100 µM (inactive) | 18.7 µM (inactive) | 36.6 µM (inactive) | 16.6 µM (inactive) |  | 29.1 µM (inactive) | 20.7 µM (inactive) | 27.9 µM (inactive) | 20.1 µM (inactive) | 43.4 µM (inactive) | 5.98 µM (inactive)
COc1ccc(CNC(=O)[C@@H]2CCCN2C(=O)[C@@H]2CCCN2C(=O)[C@H](C(C)C)N(C)C(=O)[C@@H](NC(=O)[C@H](C(C)C)N(Cc2ccccc2)Cc2ccccc2)C(C)C)cc1OC (Bn2Val-V[NMeV]PP-{NH(3,4-diMeO-benzyl)}) | 8.3 µM (inactive) | 18 µM (inactive) | 15.6 µM (inactive) | 14.5 µM (inactive) | 14.7 µM (inactive) | 18.9 µM (inactive) |  | 12.1 µM |  | 16.9 µM (inactive) | 7.55 µM (inactive) | 13.4 µM (inactive) | 3.15 µM (inactive) | 14.8 µM (inactive) | 15.1 µM (inactive) | 13.4 µM (inactive) |  | 13.5 µM (inactive) | 14.9 µM (inactive) | 4.54 µM (inactive)
COc1ccc(C2C3COc4ccccc4C3=NN2c2ccccc2)cc1 (stereo unspecified) | 87.1 µM (inactive) | > 100 µM (inactive) | > 100 µM (inactive) | > 100 µM (inactive) | > 100 µM (inactive) | > 100 µM (inactive) |  | > 100 µM | 63.8 µM (inactive) | > 100 µM (inactive) | > 100 µM (inactive) | > 100 µM (inactive) |  |  | > 100 µM (inactive) | > 100 µM (inactive) | > 100 µM (inactive) | 94.4 µM (inactive) | > 100 µM (inactive) | 31.6 µM (inactive)
CCCCCCN1C(=O)CC(=O)N(CCCCCC)S1(=O)=O | 21.6 µM (inactive) | 20 µM (inactive) | 18.9 µM (inactive) |  |  | 25.7 µM (inactive) |  |  | 36 µM (inactive) | 21.8 µM (inactive) | 40.6 µM (inactive) | 20.8 µM (inactive) | 24.8 µM (inactive) | 65.8 µM (inactive) | 18.1 µM (inactive) | 12.7 µM (inactive) | 24.7 µM (inactive) | 31.5 µM (inactive) | 11.6 µM (inactive) | 26.9 µM (inactive)
